Entries after “also recorded” stand apart in the source; their conditions may differ.
Columns and labels:
Arabidopsis thaliana = experiment: Herbicide resistance of transgenic Arabidopsis thaliana seedlings on plate medium (root growth); assay type: in vivo; details: plate medium: 2,4-D 0.3 μmol; 2,4-DB sodium 0.7 μmol; MCPA 0.1 μmol
Description: Expression in Arabidopsis thaliana was regulated by its AtUbi10 Arabidopsis thaliana ubiquitin promoter and the MAS (mannopine synthase) terminator. Hygromycin resistance gene (HygR=hpt) served as the selection marker.
Preparation of Agrobacterium infection solution: An activated Agrobacterium (GV3101) monoclone was picked and inoculated in 30 ml YEP liquid medium [yeast powder 10 g/L, tryptone 10 g/L, NaCl 5 g/L, 25 mg/L Rifampicin and 50 mg/L Kanamycin], shaking-cultured at 200 rmp/min, 28° C. overnight until the OD600 was about 1.0-1.5, then centrifuged at 6000 rmp/min for 10 min to collect the bacteria, and the supernatant was discarded. Arabidopsis thaliana infection solution (sucrose 50 g/L, Silwet L-77 300 μL/L, no need to adjust pH) was used to resuspend the cells to OD600=0.8 for later use.
Genetic transformation of Arabidopsis thaliana by flower dipping: Before transformation of Arabidopsis thaliana plants, attentions were paid to whether the plants were growing well, the inflorescences were abundant, and no stress response occurred. The first transformation was performed when plants were about 20 cm high. Plants could be properly watered if the soil was dry. The grown siliques were cut off with scissors the day before transformation. The inflorescences of the plants to be transformed were soaked in the above-mentioned Agrobacterium solution for 30 seconds to 1 minute, which was stirred gently during the period. And a layer of liquid film should appear on the infiltrated plant. The transformed plants were cultured in a dark environment for 24 hours, and then taken out and grown in a normal light environment. A second transformation could be performed in the same way a week later. […]

soybean William82 = experiment: Spray testing of transgenic soybean T1 seedlings; assay type: in vivo; details: 4.48 kg/ha foliage spray, 10 days after spraying
Source text: 1. Vector construction: the pQY2330 vector (see FIG. 8-1) was used as the overexpression vector, containing a Bar resistance gene that can be used as a selection marker for glufosinate. The AAD-like gene, QYD42, SEQ ID NO. 83, was linked to the Xho I restriction site by seamless cloning to construct the transgenic expression vector pQY2330, of which the expression cassette consisted of a double CaMV35S promoter, the AAD-like gene QYD42 and a […] Nos terminator.
2. Genetic transformation of soybeans: Soybean transformation was carried out using the Agrobacterium-mediated cotyledon nodes transformation method (Pareddy D, Chennareddy S, Anthony G, et al. Improved soybean transformation for efficient and high throughput transgenic production[J]. Transgenic Research, 2020, 29(968)). A monoclone of the Agrobacterium (EHA105) comprising the overexpression vector pQY2330 was inoculated into 5 ml YEP liquid medium (containing 25 mg/L Rifampicin and 50 mg/L Kanamycin) and shaking-cultured at 220 rmp/min, 28° C. for 8 hours. And then 0.2-0.3 ml bacteria solution was transferred to 200 ml YEP liquid medium (containing 25 mg/L Rifampicin and 50 mg/L Kanamycin) and shaking-cultured at 220 rmp/min, 28° C. overnight until the bacteria reached the exponential growth stage, then centrifuged at 4000 rmp/min for 20 min to collect the cells into a 50 ml centrifuge tube (sterilized). […]

O=C(O)COc1ccc(Cl)cc1Cl [2,4-D, (2,4-dichlorophenoxy)acetic acid, reference compound]
Effect of the herbicide on seminal roots of wild-type Col-0 (Arabidopsis thaliana): uncapable of growing roots; also recorded: seminal roots are inhibited; also recorded: seminal roots are not able to grow | Effect of the herbicide spray on non-transgenic soybean William82 (soybean William82): all non-transgenic recipient parents died and die

From patent US20240043859A1, “HERBICIDE-RESISTANT PROTEIN, AND GENE AND USE THEREOF” (QINGDAO KINGAGROOT CHEMICAL COMPOUND CO., LTD., priority 2020, published 2024)
